By IC50 is commonly meant the concentration at which inhibition is half-maximal.

Molecules are shown by their SMILES.

One assay has as its target T1, human progesterone receptor B (Homo sapiens, UniProt P06401).
T1 construct: expressed in transfected cells; host or cells: SK-N-MC human neuroblastoma cells, stably transfected with pRChPR-B-neo and pMMTV-LUC
T1 sequence (P06401 1-933): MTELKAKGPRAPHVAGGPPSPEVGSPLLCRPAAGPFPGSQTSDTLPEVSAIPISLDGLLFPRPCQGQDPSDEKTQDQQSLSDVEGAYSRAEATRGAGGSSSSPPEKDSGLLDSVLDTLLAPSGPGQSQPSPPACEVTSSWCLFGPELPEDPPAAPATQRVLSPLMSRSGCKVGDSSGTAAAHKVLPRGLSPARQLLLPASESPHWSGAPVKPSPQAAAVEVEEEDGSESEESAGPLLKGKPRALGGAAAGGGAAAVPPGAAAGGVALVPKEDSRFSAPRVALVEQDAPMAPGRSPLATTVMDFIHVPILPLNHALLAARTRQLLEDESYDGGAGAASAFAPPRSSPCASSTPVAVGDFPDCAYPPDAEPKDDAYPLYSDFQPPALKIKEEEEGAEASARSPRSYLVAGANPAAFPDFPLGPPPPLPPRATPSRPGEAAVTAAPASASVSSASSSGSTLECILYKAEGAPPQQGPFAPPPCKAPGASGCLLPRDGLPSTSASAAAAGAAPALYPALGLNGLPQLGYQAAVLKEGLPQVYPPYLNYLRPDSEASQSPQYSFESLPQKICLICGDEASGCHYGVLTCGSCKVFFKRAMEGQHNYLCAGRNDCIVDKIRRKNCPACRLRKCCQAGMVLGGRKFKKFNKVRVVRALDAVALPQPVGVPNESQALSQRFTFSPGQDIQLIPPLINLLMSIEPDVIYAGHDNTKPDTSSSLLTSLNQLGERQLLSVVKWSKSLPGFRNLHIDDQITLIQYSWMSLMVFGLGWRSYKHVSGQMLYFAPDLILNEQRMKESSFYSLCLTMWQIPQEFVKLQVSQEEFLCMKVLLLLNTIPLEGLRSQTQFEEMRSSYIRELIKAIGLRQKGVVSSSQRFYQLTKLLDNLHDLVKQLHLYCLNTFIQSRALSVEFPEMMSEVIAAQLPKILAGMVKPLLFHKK
The assay is described as follows: Progesterone receptor antagonistic effect in stably transfected SK-N-MC cells, MTV-LUC reporter (PR-B). In kind it is cell-based. To be noted: antagonism of 0.1 nmol/l promegestone, luciferase reporter, 24 hours. The method, then: (§1) Progesterone Receptor Antagonistic Effect in Stable Transfectants of Human Neuroblastoma Cells (SK-N-MC cells) with the Human Progesterone A or Progesterone B Receptor and a MTV-LUC Reporter Construct
(§2) SK-N-MC cells (human neuroblastoma cells), which have been stably transfected with plasmids which express the human progesterone receptor B (pRChPR-B-neo) or the human progesterone receptor A (pRChPR-A-neo) and a reporter construct (pMMTV-LUC), were incubated for 24 hours either in the absence (negative control) or in the presence of increasing amounts of the particular test compound (0.01 nmol/l, 0.1 nmol/l, 1 nmol/l, 10 nmol/l, 100 nmol/l and 1 μmol/l) in order to determine the agonistic efficacy. As a positive control of the reporter gene induction, the cells were treated with the synthetic gestagen promegestone (0.01 nmol/l, 0.1 nmol/l, 1 nmol/l, 10 nmol/l, 100 nmol/l and 1 μmol/l). To determine the antagonistic activity, the cells were treated with 0.1 nmol/l of promegestone and additionally with increasing amounts of the particular test compound (0.01 nmol/l, 0.1 nmol/l, 1 nmol/l, 10 nmol/l, 100 nmol/l and 1 μmol/l). The activity of the reporter gene LUC (LUC=luciferase) was determined in the cell lysates and measured as RLU (relative light units). All measurement values are given as percentage efficacy and as EC50 or IC50 concentrations.
Regarding `CN1CCN(Cc2ccc([C@H]3C[C@@]4(C)[C@@H](CC[C@@]4(O)C(F)(F)C(F)(F)F)[C@@H]4CCC5=CC(=O)CCC5=C43)cc2)CC1` [Example 2, (11β,17β)-17-Hydroxy-11-{4-[(4-methylpiperazin-1-yl)methyl]phenyl}-17-(pentafluoroethyl)estra-4,9-dien-3-one], inhibition was half-maximal at 2.8 nM (IC50).

The target of the next assay is T2, human progesterone receptor A (Homo sapiens, UniProt P06401).
T2 construct: expressed in transfected cells; host or cells: SK-N-MC human neuroblastoma cells, stably transfected with pRChPR-A-neo and pMMTV-LUC
T2 sequence (P06401 1-769 isoform P06401-2): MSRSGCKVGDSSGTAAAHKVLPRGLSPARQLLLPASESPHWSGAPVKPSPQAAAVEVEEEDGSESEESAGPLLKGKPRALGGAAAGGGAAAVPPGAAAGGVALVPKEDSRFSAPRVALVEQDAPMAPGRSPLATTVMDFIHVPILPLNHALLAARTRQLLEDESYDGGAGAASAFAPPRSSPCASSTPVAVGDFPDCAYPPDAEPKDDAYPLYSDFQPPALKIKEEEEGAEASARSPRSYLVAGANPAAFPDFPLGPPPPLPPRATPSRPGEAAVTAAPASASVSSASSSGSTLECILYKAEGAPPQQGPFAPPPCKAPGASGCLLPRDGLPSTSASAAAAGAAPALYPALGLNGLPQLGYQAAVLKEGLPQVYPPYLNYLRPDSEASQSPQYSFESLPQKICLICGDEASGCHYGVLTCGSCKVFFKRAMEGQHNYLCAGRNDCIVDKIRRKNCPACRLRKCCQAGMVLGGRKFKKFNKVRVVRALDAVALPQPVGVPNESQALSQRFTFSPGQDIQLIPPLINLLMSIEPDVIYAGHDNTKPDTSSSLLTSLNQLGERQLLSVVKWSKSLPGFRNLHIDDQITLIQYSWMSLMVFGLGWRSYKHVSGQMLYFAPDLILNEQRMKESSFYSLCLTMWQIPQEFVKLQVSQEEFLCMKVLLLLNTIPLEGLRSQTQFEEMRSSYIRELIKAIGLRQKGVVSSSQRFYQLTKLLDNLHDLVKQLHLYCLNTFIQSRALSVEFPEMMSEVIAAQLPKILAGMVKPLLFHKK
The experiment in a line: Progesterone receptor antagonistic effect in stably transfected SK-N-MC cells, MTV-LUC reporter (PR-A). In kind it is cell-based. The settings on record: antagonism of 0.1 nmol/l promegestone, luciferase reporter, 24 hours. On the procedure: as §1, §2
In turn, `COC(=O)c1cccc(NCc2ccc([C@H]3C[C@@]4(C)[C@@H](CC[C@@]4(O)C(F)(F)C(F)(F)F)[C@@H]4CCC5=CC(=O)CCC5=C43)cc2)c1` [Example 39, Methyl 3-({4-[(11β,17β)-17-hydroxy-3-oxo-17-(pentafluoroethyl)estra-4,9-dien-11-yl]benzyl}amino)benzoate] showed an IC50 of 1.77 nM.
For `C[C@]12C[C@H](c3ccc(CNc4cccc(S(N)(=O)=O)c4)cc3)C3=C4CCC(=O)C=C4CC[C@H]3[C@@H]1CC[C@@]2(O)C(F)(F)C(F)(F)F` [Example 40, 3-({4-[(11β,17β)-17-Hydroxy-3-oxo-17-(pentafluoroethyl)estra-4,9-dien-11-yl]benzyl}amino)benzenesulphonamide], the IC50 was 0.49 nM.
Same read-out and setting: the figure for `C[C@]12C[C@H](c3ccc(CN4CCC(c5ccccc5)CC4)cc3)C3=C4CCC(=O)C=C4CC[C@H]3[C@@H]1CC[C@@]2(O)C(F)(F)C(F)(F)F` [Example 41, (11β,17β)-17-Hydroxy-17-(pentafluoroethyl)-11-{4-[(4-phenylpiperidin-1-yl)methyl]phenyl}estra-4,9-dien-3-one] is 11.2 nM.
The same measure, in the same setting: for `CN(C)C(=O)N1CCN(Cc2ccc([C@H]3C[C@@]4(C)[C@@H](CC[C@@]4(O)C(F)(F)C(F)(F)F)[C@@H]4CCC5=CC(=O)CCC5=C43)cc2)CC1` [Example 42, 4-{4-[(11β,17β)-17-Hydroxy-3-oxo-17-(pentafluoroethyl)estra-4,9-dien-11-yl]benzyl}-N,N-dimethylpiperazine-1-carboxamide] the value was 0.52 nM; for `C[C@]12C[C@H](c3ccc(CN4CCN(Cc5ccccn5)CC4)cc3)C3=C4CCC(=O)C=C4CC[C@H]3[C@@H]1CC[C@@]2(O)C(F)(F)C(F)(F)F` [Example 43, (11β,17β)-17-Hydroxy-17-(pentafluoroethyl)-11-(4-{[4-(pyridin-2-ylmethyl)piperazin-1-yl]methyl}phenyl)estra-4,9-dien-3-one], 2.88 nM.
Same read-out and setting: for `C[C@]12C[C@H](c3ccc(CN4CCN(Cc5cccnc5)CC4)cc3)C3=C4CCC(=O)C=C4CC[C@H]3[C@@H]1CC[C@@]2(O)C(F)(F)C(F)(F)F` [Example 44, (11β,17β)-17-Hydroxy-17-(pentafluoroethyl)-11-(4-{[4-(pyridin-3-ylmethyl)piperazin-1-yl]methyl}phenyl)estra-4,9-dien-3-one] the value was 3.06 nM; for `CNC(=O)CN1CCN(Cc2ccc([C@H]3C[C@@]4(C)[C@@H](CC[C@@]4(O)C(F)(F)C(F)(F)F)[C@@H]4CCC5=CC(=O)CCC5=C43)cc2)CC1` [Example 45, 2-(4-{4-[(11β,17β)-17-Hydroxy-3-oxo-17-(pentafluoroethyl)estra-4,9-dien-11-yl]benzyl}piperazin-1-yl)-N-methylacetamide], 1.65 nM; for `C[C@]12C[C@H](c3ccc(CN4CCCC4)cc3)C3=C4CCC(=O)C=C4CC[C@H]3[C@@H]1CC[C@@]2(O)C(F)(F)C(F)(F)F` [Example 46, (11β,17β)-17-Hydroxy-17-(pentafluoroethyl)-11-[4-(pyrrolidin-1-ylmethyl)phenyl]estra-4,9-dien-3-one], 37.4 nM.
On to `C[C@]12C[C@H](c3ccc(CNCc4ccncc4)cc3)C3=C4CCC(=O)C=C4CC[C@H]3[C@@H]1CC[C@@]2(O)C(F)(F)C(F)(F)F` [Example 47, (11β,17β)-17-Hydroxy-17-(pentafluoroethyl)-11-(4-{[(pyridin-4-ylmethyl)amino]methyl}phenyl)estra-4,9-dien-3-one], for which the IC50 was 2.71 nM.
The compound `CN(Cc1ccc([C@H]2C[C@@]3(C)[C@@H](CC[C@@]3(O)C(F)(F)C(F)(F)F)[C@@H]3CCC4=CC(=O)CCC4=C32)cc1)c1ccccc1` [Example 48, (11β,17β)-17-Hydroxy-11-(4-{[methyl(phenyl)amino]methyl}phenyl)-17-(pentafluoroethyl)estra-4,9-dien-3-one] came in with an IC50 of 1.28 nM.
Still for that read-out and setting: for `C[C@]12C[C@H](c3ccc(CNc4ccccc4C(N)=O)cc3)C3=C4CCC(=O)C=C4CCC3C1CC[C@@]2(O)C(F)(F)C(F)(F)F` (stereo partly drawn) [Example 49, 2-({4-[(11β,17β)-17-Hydroxy-3-oxo-17-(pentafluoroethyl)estra-4,9-dien-11-yl]benzyl}arnino)benzamide] the value was 1.29 nM; for `C[C@]12C[C@H](c3ccc(CN4CCN(c5ccncc5)CC4)cc3)C3=C4CCC(=O)C=C4CC[C@H]3[C@@H]1CC[C@@]2(O)C(F)(F)C(F)(F)F` [Example 50, (11β,17β)-17-Hydroxy-17-(pentafluoroethyl)-11-(4-{[4-(pyridin-4-yl)piperazin-1-yl]methyl}phenyl)estra-4,9-dien-3-one], 1.2 nM; for `CN(C)CCN1CCN(Cc2ccc([C@H]3C[C@@]4(C)C(CC[C@@]4(O)C(F)(F)C(F)(F)F)C4CCC5=CC(=O)CCC5=C43)cc2)CC1` (stereo partly drawn) [Example 51, (11β,17β)-11-[4-({4-[2-(Dimethylamino)ethyl]piperazin-1-yl}methyl)phenyl]-17-hydroxy-17-(pentafluoroethyl)estra-4,9-dien-3-one], 64.7 nM.
On the same count and under the same terms, the figure for `CN(CCc1ccccn1)Cc1ccc([C@H]2C[C@@]3(C)[C@@H](CC[C@@]3(O)C(F)(F)C(F)(F)F)[C@@H]3CCC4=CC(=O)CCC4=C32)cc1` [Example 52, (11β,17β)-17-Hydroxy-11-[4-({methyl[2-(pyridin-2-yl)ethyl]amino}methyl)phenyl]-17-(pentafluoroethyl)estra-4,9-dien-3-one] is 6.5 nM; for `C[C@]12C[C@H](c3ccc(CNc4cccc(C(N)=O)c4)cc3)C3=C4CCC(=O)C=C4CC[C@H]3[C@@H]1CC[C@@]2(O)C(F)(F)C(F)(F)F` [Example 53, 3-({4-[(11β,17β)-17-Hydroxy-3-oxo-17-(pentafluoroethyl)estra-4,9-dien-11-yl]benzyl}amino)benzamide] it is 0.84 nM.
Same read-out and setting: for `C[C@]12C[C@H](c3ccc(CNc4ccc(C(=O)Nc5ccccc5)cc4)cc3)C3=C4CCC(=O)C=C4CC[C@H]3[C@@H]1CC[C@@]2(O)C(F)(F)C(F)(F)F` [Example 54, 4-({4-[(11β,17β)-17-Hydroxy-3-oxo-17-(pentafluoroethyl)estra-4,9-dien-11-yl]benzyl}amino)-N-phenylbenzamide] the value was 1.28 nM.

For the origin of these results see US9085603B2, “Progesterone receptor antagonists” (Bayer Intellectual Property GmbH, priority 2010, dated 2015).
